Results reported in patent publication US9125939B2, “Carbostyril derivatives and mood stabilizers for treating mood disorders” (Otsuka Pharmaceutical Co., Ltd., priority 2003, dated 2015).

Experiments:
[1] = tested on: acute manic or mixed bipolar episodes; conditions: cotherapy vs monotherapy
[2] = tested on: acute mania in adolescents with bipolar disorder; assay: double-blind, randomized, placebo-controlled study as adjunctive treatment to divalproex for adolescent mania (Examples 7 and 8); assay type: in vivo, human
[3] = DVP + about 10 mg/day, 6 weeks, vs DVP+placebo

O=C1CCc2ccc(OCCCCN3CCN(c4cccc(Cl)c4Cl)CC3)cc2N1 [aripiprazole, 7-{4-[4-(2,3-dichlorophenyl)-1-piperazinyl]butoxy}-3,4-dihydro-2(1H)-quinolinone]
HAMD-21 total scores [1]: total scores more than monotherapy
YMRS response rate [2, 3]: significantly greater
reduction in YMRS scores from baseline to endpoint [2, 3]: greater reduction
Sedation, rated as mild or moderate ([2]; DVP combination vs DVP+placebo): more common
safety measures, group differences from baseline to endpoint ([2]; DVP combination vs DVP+placebo): No significant group differences
tolerability in combination with DVP ([2]; treatment of mania): well tolerated
